Experiments:
BCAS mice [1] = assay: Morris water maze (MWM) test in modified BCAS mice; assay type: in vivo, C57BL/6J mice
Description: (§1) Clinically, most patients with intracranial atherosclerotic stenosis suffer from permanent stenosis without occlusion. Therefore, to mimic clinical atherosclerotic stenosis with permanent carotid artery (CCA) hypoperfusion, a modified BCAS model was adapted by ligating the CCA guided with a 30 gauge needle (0.31 mm diameter) in the right CCA and a 33 gauge needle (0.21 mm diameter) in the left CCA with a 4-0 silk suture. […] Next, changes of total NKCC1 (tNKCC1) protein expression were surveyed in different brain regions at 2 and 4 wks post-surgery by immunofluorescence staining (IF). […] Therefore, in the rest of the study, the investigation was focused on its association to white matter GFAP^+ astrogliosis and lesion of CC and external capsul (EC) tracks. […] However, by 2 wks post-BCAS surgery, tNKCC1 immunofluorescence intensity in the CC tracks was increased by ˜3 folds (p<0.05), and further elevated to ˜6 folds by 4 wks (p<0.05, arrowhead). Data are mean±SEM, n=4, *p<0.05, **p<0.01. […] The upregulation of tNKCC1 and GFAP protein expression in the CC is correlated, with a Pearson's correlation coefficient of r=0.9 (p<0.001). […] In contrast, no elevated tNKCC1 protein was detected either in Iba1^+ microglia/macrophages or in Olig2+ oligodendrocytes (OL) at 4 wks post-BCAS surgery (FIG. 1D). Without wishing to be bound by theory, these findings indicate that upregulation of NKCC1 expression and activity in reactive astrocytes may play a critical role in white matter inflammation, OL death, and demyelination after BCAS. Next, whether administration of SPAK inhibitor ZT-1a reduces WML and improves cognitive functions was examined. Starting at 14 days after BCAS surgery in mice (male), either vehicle DMSO (Veh, 2 ml/kg) or ZT-1a (5 mg/kg, every 72 h, i.p) was administered every 3 days, until they were sacrificed at day 35 post-BCAS (FIG. 3A). […] Motor functions are similar in all groups and average swimming speeds were not different in the Sham-, Veh- and ZT-1a-treated mice. Data are mean±SEM, n=6 (Sham and ZT-1a) or 5 (Veh), *p<0.01 vs. sham, *p<0.05 vs. Veh.

BCAS mice [2] = assay: Ex-vivo MRI DTI analysis of white matter lesion in BCAS mice; parameters: species or system C57BL/6J mice; settings: 4 wks post-BCAS, vs Veh-control
Description: as §1, with “Veh. After completion of the neurological function tests in the Veh-control and ZT-1a-treated BCAS cohort mice (as shown in FIG. 3A and FIG. 3B), ex-vivo brains were harvested for MRI DTI (diffusion tensor imaging) analysis of WML at 4 wks post-BCAS detected by DTI. The fractional anisotropy (FA), radial diffusivity (RD), and mean diffusivity (MD) of the CC and EC tracks were analyzed. Representative images of the DEC maps in FIG. 4A show severe loss of axonal fibers (arrowheads) in the CC and left EC of the Veh-control brains. […] These observations are consistent with changes of FA, RD, and MD values (FIG. 4B). […] Then MBP expression levels were measured in these brains by immunostaining. […]” for “Veh.”

Cc1cc(C(C#N)c2ccc(Cl)cc2)c(Cl)cc1NC(=O)c1cc(Cl)ccc1O (stereo not shown) [1a (ZT-1a)]
escape latency in MWM test (BCAS mice [1]; 5 mg/kg i.p. every 72 h from day 14 after BCAS, 4 wks post-BCAS, vs Veh-treated BCAS mice): significantly less escape latency | time in the target quadrant, spatial probe trial (BCAS mice [1]; 5 mg/kg i.p. every 72 h from day 14 after BCAS, mean±SEM, n=6, Veh 15.3±1.2 sec, p<0.05): 26.3 ± 4.3 s | average swimming speeds (BCAS mice [1]; Sham-, Veh- and ZT-1a-treated mice compared): not different | integrity of the CC and EC tracks (DEC maps) (BCAS mice [2]; 5 mg/kg i.p. every 72 h, both hemispheres): better-preserved integrity | fractional anisotropy (FA) values (BCAS mice [2]; p<0.05): significantly higher | mean diffusivity (MD) values (BCAS mice [2]; p<0.05): lower | radial diffusivity (RD) values (BCAS mice [2]; p<0.05): lower
